What all share (type): cell-based
Test [1] deals with 185 kDa protein(s) (p185). Put plainly: Tyrosine phosphorylation of p185 in MCF-7 cells (anti-phosphotyrosine immunoblot). As to conditions: MCF-7 cells; for Tyrosine phosphorylation of a 185 kDa protein(s): ATA, EB each at 300 μg/ml, IGF-1 at 20 ng/ml; for Exposure time at which p185 phosphorylation peaked: 300 μg/ml ATA, 30 μg/ml EB. The procedure: FIG. 1 is the effect of ATA and EB on tyrosine phosphorylation: MCF-7 cells, grown in 35 mm dishes were solubilized in Buffer A (a) or Buffer B (b-c). The solubilized cells were subjected to 7.5% SDS-PAGE and immunoblotted with an anti-phosphotyrosine antibody. (a) Cells treated for 5 mins. with ATA, EB, each at 300 μg/ml, IGF-1 at 20 ng/ml, or without additives (CON); (b) Cells treated with 300 μg/ml ATA for the indicated times; (c) Cells treated with 30 μg/ml EB for the indicated times; (d) Cells treated for 5 mins. with the indicated concentrations of ATA; (e) Cells treated for 5 mins. with the indicated concentrations of EB. Molecular mass markers (in kDa) are indicated on the right.
FIG. 2 is the effect of ATA and vanadate on the IGF-1 stimulated tyrosine phosphorylation of p185: A--Cells treated for 5 mins. with the indicated concentrations of IGF-1 in the presence or absence of 300 μg/ml ATA; B--Cells pre-incubated for 3 hours with or without 50 μM vanadate were incubated for 5 mins. with ATA, EB each at 300 μg/ml or with 10 ng/ml IGF-1 in the presence or absence of vanadate. Cytosols extracted in Buffer B were analyzed by immunoblotting with anti-phosphotyrosine antibody as in FIG. 1.
FIG. 8 is the effect of fractionated ATA on p185 phosphorylation: A--Crude ATA was separated on a Bio-Rad P-4 column and the combined void volume was then gel filtrated on a column of Bio-Rad P-10. The column was calibrated with the following molecular weight markers: DB-Dextran blue; CC-cytochrome C: Ins-insulin; B12-Vitamin B12. B--MCF-7 cells were incubated for 5 mins. with the indicated fractions of ATA (eluted from the P-10 column shown in A), crude ATA, each at 200 μg/ml or IGF-1 at 20 ng/ml. Cytosols, solubilized in Buffer B were subjected to 7.5% SDS-PAGE and immunoblotted with phosphotyrosine antibody.
(§1) MCF-7 cells were grown in 35 or 100 mm dishes in DMEM with 5% bovine fetal serum. Rat hepato FaO cells were grown in RPMI 1640 medium supplemented with 10% fetal calf serum. Subconfluent monolayers of MCF-7 cells or FaO cells, were deprived of serum for 20 hours prior to each experiment. The medium was removed, and cells were incubated at 37° C. under the conditions as indicated for each experiment. The reaction was terminated by removing the medium and freezing the monolayers with liquid nitrogen. In some experiments, cells were preincubated with 50 μM sodium orthovanadate for 3 hours.
Cells were solubilized at 4° C. with 0.2 ml/35 mm dish or 2 ml/100 mm dish of the indicated buffer. The solubilized cells were scraped and sedimented by centrifugation at 12,000×g for 30 mins. at 4° C. Aliquots of the supernatants were normalized for protein, mixed with concentrated (5×) Laemmli sample buffer, boiled for 10 mins. and resolved on 7.5 or 12% SDS-PAGE under reducing conditions.
(§2) Nitrocellulose blots of proteins were incubated with the antibodies, and proteins were detected by enhanced chemiluminescence using horseradish peroxidase-labeled protein A, horseradish peroxidase-labeled anti rabbit IgG or horseradish peroxidase-labeled anti-mouse IgG.
Background: Immunoblotting shows a protein as a band on a membrane.

Another test has as its system PI3-kinase. Put plainly: Anti-IRS-1 precipitable PI3-kinase activity in MCF-7 cells. As to conditions: 5 mins., ATA or EB 300 μg/ml.
Test [2] deals with MAPK-1 (44 kDa) and MAPK-2 (42 kDa). Put plainly: Activation of MAPKs in MCF-7 cells (anti-active MAPK immunoblot). As to conditions: 5 mins., ATA, EB each at 300 μg/ml, IGF-1 20 or 40 ng/ml. The procedure: FIG. 7 is the effect of ATA and EB on activation of MAPKs: MCF-7 cells were treated for 5 mins. with ATA, EB, each at 300 μg/ml, 20 ng/ml or 40 ng/ml IGF-1. Cell lysates, solubilized in Buffer C, were subjected to 12% SDS-PAGE and immunoblotted with an anti-active MAPK antibody. The membrane, after ECL detection, was stripped of bound antibody and blotted with an anti-MAPK antibody.
as §2
The activated forms of MAPKs were detected by anti-active MAPK immunoblotting in the MCF-7 cell's lysates. […] Blotting with anti MAPKs antibodies confirms that similar amounts of MAPKs were present in treated and non-treated cells.

The next test deals with T1, IR (Rattus norvegicus, UniProt P15127).
T1 construct: determined in the rat hepatoma cell line FaO; endogenous in cells; host or cells: FaO (rat hepatoma)
T1 sequence (P15127 764-1383 limits assumed): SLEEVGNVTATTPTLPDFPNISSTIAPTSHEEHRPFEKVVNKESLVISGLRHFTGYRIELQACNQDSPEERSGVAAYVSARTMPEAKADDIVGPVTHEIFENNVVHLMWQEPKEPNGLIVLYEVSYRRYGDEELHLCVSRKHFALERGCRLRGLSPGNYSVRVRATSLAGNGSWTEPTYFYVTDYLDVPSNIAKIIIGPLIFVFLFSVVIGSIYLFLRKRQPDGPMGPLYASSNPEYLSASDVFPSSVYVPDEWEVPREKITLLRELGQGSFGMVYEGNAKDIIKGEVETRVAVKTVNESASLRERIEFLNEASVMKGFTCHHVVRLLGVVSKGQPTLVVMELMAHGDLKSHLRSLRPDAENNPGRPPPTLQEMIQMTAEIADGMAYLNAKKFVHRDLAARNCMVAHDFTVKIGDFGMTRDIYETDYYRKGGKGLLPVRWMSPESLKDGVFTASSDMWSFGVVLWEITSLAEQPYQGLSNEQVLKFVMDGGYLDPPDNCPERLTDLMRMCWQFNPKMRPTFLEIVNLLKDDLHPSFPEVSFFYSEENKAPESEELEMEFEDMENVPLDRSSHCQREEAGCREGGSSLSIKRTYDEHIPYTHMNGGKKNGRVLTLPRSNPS
T1 sequence (P15127 27-759 limits assumed): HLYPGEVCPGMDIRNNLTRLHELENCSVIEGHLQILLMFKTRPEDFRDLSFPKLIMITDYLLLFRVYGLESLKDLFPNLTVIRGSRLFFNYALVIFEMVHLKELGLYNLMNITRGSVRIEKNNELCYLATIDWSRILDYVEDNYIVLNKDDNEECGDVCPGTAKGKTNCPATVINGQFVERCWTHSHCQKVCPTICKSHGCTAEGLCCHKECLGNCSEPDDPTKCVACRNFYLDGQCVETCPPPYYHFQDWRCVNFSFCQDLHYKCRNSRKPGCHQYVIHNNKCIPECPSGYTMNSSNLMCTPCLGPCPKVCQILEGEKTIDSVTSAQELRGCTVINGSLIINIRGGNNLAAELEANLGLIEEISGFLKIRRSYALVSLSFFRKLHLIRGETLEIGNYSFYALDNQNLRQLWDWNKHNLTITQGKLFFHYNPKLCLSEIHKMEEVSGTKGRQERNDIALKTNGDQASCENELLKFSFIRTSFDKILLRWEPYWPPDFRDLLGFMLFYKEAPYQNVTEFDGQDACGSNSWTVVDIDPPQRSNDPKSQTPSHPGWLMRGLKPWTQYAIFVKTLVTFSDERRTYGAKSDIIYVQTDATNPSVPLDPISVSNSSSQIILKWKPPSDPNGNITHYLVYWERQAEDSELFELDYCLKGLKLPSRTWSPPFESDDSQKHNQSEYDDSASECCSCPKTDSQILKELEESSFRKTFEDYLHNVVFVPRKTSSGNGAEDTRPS
The test can be described thus: Tyrosine phosphorylation of IR in FaO cells. The settings on record: EB; for Tyrosine phosphorylation of IR: 5 mins., ATA at 200 μg/ml. The procedure:
FIG. 9 is the tyrosine phosphorylation of the IR cascade in Fao cells: A--Immunoblot analysis: Fao cells were deprived of serum for 20 hours, then incubated with EB, ATA, at 200 μg/ml or insulin at 600 ng/ml for 5 mins. Cell extracts were subjected to immunoprecipitation with antibodies to: IR β-subunit (αIR), IRS-1 (αIRS-1) and to IRS-2 (αIRS-2). The immunoprecipitates and total cell extracts were analyzed by SDS-PAGE. Proteins were transferred to nitrocellulose papers, and phosphotyrosine containing proteins were probed with anti-phosphotyrosine antibodies (αP-Tyr), antibody to the 85-kDa subunit of PI3-kinase (αp85) and antibodies to active MAPK (α active MAPK). The immunoblots were visualized by ECL (Amersham).
B--Kinetics of IR phosphorylation: Cells were treated either with 200 μg/ml EB for the indicated times (top panel) or with the indicated concentrations of EB for 5 mins. (middle panel). A 3 hour preincubation with vanadate preceded the 5 min. incubations with EB and insulin (bottom panel).
as §1
Cells were solubilized in Buffer A or C. Extracts were immunoprecipitated at 4° C. with antibodies to IRS-1, IRS-2, IGF-1 or IR receptor or Grb2, adsorbed on protein A-Sepharose beads. The immunocomplexes were pelleted by centrifugation at 12,000×g and washed twice with Buffer A, and twice with Buffer A containing 0.1% Triton x-100. The pellets were then suspended in Laemmli sample buffer and resolved on 7.5% SDS-PAGE.
as §2
The ability of EB and ATA to phosphorylate the IR was determined in the rat hepatoma cell line FaO. […] Phosphorylation is maximal after a 1 min. exposure to 70 μg/ml of EB (FIG. 9B, top and middle panels).

The next test concerns 3T3 L1 adipocytes. Put plainly: Glycogen synthesis in 3T3 L1 adipocytes. The settings on record: 20 mins., EB, ATA 200 μg/ml, insulin 600 ng/ml. The procedure: FIG. 11 is the metabolic effects in 3T3 L1 adipocytes: Fully differentiated 3T3 L1 adipocytes were incubated with EB, ATA or fuchsin (FUCH) each at 200 μg/ml, or with 600 ng/ml of insulin for 20 mins. (A, B, C) or 5 mins. (D). CON indicates no additive.
B--Glycogen synthesis. Cells were incubated with (^14 C)-glucose for 10 mins. Radioactivity was determined in the precipitated glycogen fraction.

Protocol for PI3-kinase: FIG. 5 is the effect of ATA and EB on the anti-IRS-1 precipitable PI3-kinase activity: Cells were treated as in FIG. 3a. Anti-IRS-1 immunoprecipitates were washed and the pellets incubated with phosphatidyl inositol and γ^32 P-ATP.
Phosphorylation of phosphatidyl inositol was measured as follows. Cells were solubilized in Buffer C and the extracts immunoprecipitated at 4° C. with IRS-1 antibody and adsorbed onto protein A-Sepharose beads. The immunoprecipitates were washed three times with Buffer C and then washed once with Buffer B, Buffer E and Buffer F. The lipid kinase reaction was initated by addition of 100 μl sonicated phosphatidylinositol (10 μg) in kinase buffer (20 mM Hepes, pH 7.5, 10 mM MnCl2 and 10 mM MgCl2) containing 10 μCi [γ^32 P]ATP (3000 ci/m mol; Amersham). The reaction was performed at room temperature for 10 mins. and terminated by the addition of 100 μl 1 N HCl. Lipids were extracted by addition of 200 μl of a 1:1 mixture of chloroform/methanol, followed by vortexing and centrifugation at 14,000×g for 10 mins. The chloroform-containing lipid phase was then re-extracted with 150 μl of a 1:1 mixture of 1N HCl/methanol, followed by vortexing and centrifugation at 14,000×g for 10 mins. The 30 μl of the chloroform phase were resolved by thin layer chromatography using a chloroform/methanol/ammonium hydroxide (90:70:20 v/v)) running buffer. […]

On to `O=C(O)C1=CC(=C(c2ccc(O)c(C(=O)O)c2)c2ccc(O)c(C(=O)O)c2)C=CC1=O` [ATA, Aurintricarboxylic acid], for which, in test [1] (5 mins.), the “Concentration of maximal p185 phosphorylation” value is 300 to 400 µg/mL and the “Tyrosine phosphorylation of a 185 kDa protein(s)” value was “enhanced tyrosine phosphorylation of a 185 kDa protein(s)”. The “Effect on IGF-1 induced phosphorylation of the 185 kDa protein(s)” value in test [1] (5 mins., 300 μg/ml ATA with IGF-1) is “unaffected”. The “pp185 (arbitrary units)” value in test [1] (5 mins., ATA fractions or crude ATA each at 200 μg/ml, scanned autoradiogram from FIG. 8B, Control 100) is given as 668 arbitrary units. In addition, in test [1], the “Exposure time at which p185 phosphorylation peaked” value turned out to be 2 min. Further, the “PI3-kinase activity (anti-IRS-1 precipitable)” value in the test on PI3-kinase is on record as “increases PI3-kinase activity similar to IGF-1”. In addition, the “Phosphorylated (active) isoforms MAPK-1 and MAPK-2” value in test [2] was “clearly detected”. In addition, the “Tyrosine phosphorylation of IR” value on IR was “phosphorylates IR on tyrosine residues, similar to insulin”. The Glycogen synthesis entry in the test with 3T3 L1 adipocytes is “increase”.
On to `Cc1cc(-c2ccc(N=Nc3ccc4c(S(=O)(=O)O)cc(S(=O)(=O)O)c(N)c4c3O)c(C)c2)ccc1N=Nc1ccc2c(S(=O)(=O)O)cc(S(=O)(=O)O)c(N)c2c1O` [EB, Evan's Blue], for which, in test [1] (5 mins.), the “Concentration of maximal p185 phosphorylation” value was in the range of 300 to 400 µg/mL and the “Tyrosine phosphorylation of a 185 kDa protein(s)” value is reported as “enhanced tyrosine phosphorylation of a 185 kDa protein(s)”. For the same compound, the “Exposure time at which p185 phosphorylation peaked” value in test [1] turned out to be 5 min. The “PI3-kinase activity (anti-IRS-1 precipitable)” value with PI3-kinase is reported as “increases PI3-kinase activity similar to IGF-1”. For the same compound, the “Phosphorylated (active) isoforms MAPK-1 and MAPK-2” value in test [2] was “clearly detected”. Besides, on IR, the “Tyrosine phosphorylation of IR” value is given as “phosphorylates IR on tyrosine residues, similar to insulin”; the “Concentration of maximal IR phosphorylation” value is 70 µg/mL; the “Exposure time of maximal IR phosphorylation” value is 1 min. The Glycogen synthesis entry with 3T3 L1 adipocytes is “increase”.

For the origin of these results see patent US6020374A, “Biologically active synthetic dye compounds” (priority 1998, dated 2000).
